According to ChEMBL document CHEMBL5335768, “Expanding the knowledge around antitubercular 5-(2-aminothiazol-4-yl)isoxazole-3-carboxamides: Hit-to-lead optimization and release of a novel antitubercular chemotype via scaffold derivatization” (Eur J Med Chem, 2023):

How the values were obtained:
[1] = system: Mycobacterium tuberculosis; assay: Antitubercular activity against STR/INH/RIF/EMB/ETH-resistant Mycobacterium tuberculosis IC1 assessed as inhibition of bacterial growth measured after 3 weeks by broth microdilution method; assay type: functional; conditions: IC1, 504 h
[2] = system: Mycobacterium tuberculosis; assay: microbe, parasite or virus in culture; conditions: IC2, 504 h

Molecule NNC(=O)c1ccncc1 [ISONIAZID] has an MIC90 [1] greater than 0.2 µg/mL and an MIC90 [2] greater than 0.2 µg/mL.
